# In BindingDB's records for doi:10.1074/jbc.M803947200 (Universit&Eacute, 2008):
# pIC50: −log10 of the molar value.
# Target: Stromal cell-derived factor 1 (Homo sapiens, UniProt P48061)
# Assay: Tryptophan Fluorescence Assay
# Conditions: 20 °C
# From the text: Binding of chalcone 4 and chlcone 1 to CSCL12 was examined by monitoring changes in the emission intensity of intrinsic Trp fluorescence of the chemokine.
# Chain of Stromal cell-derived factor 1 (P48061 whole entry): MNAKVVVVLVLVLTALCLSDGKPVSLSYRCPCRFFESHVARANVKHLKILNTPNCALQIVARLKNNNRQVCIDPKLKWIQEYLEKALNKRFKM
row,pIC50,Compound
1,3.82,COc1cc(/C=C/C(=O)c2ccc(Cl)cc2)ccc1O [1-(4-Chloro-phenyl)-3-(4-hydroxy-3-methoxy-phenyl)-propenone]
2,4.62,O=C(/C=C/c1ccc(O)cc1)c1ccccc1O [(E)-1-(2-hydroxyphenyl)-3-(4-hydroxyphenyl)prop-2-en-1-one]
3,4.82,O=C(/C=C/c1ccc(O)cc1)c1ccccc1 [Chalcone 2]
4,< 3.30,"O=C(/C=C/c1ccccc1)c1ccccc1 [Chalcone, 13]"
